Tests used:
[1] = Oral administration in rats over four weeks (clinical pathology); assay type: in vivo; details: 180 mg/kg over four weeks
Text: Furthermore, it is contemplated that treatment of a viral disease with Levovirin is predominantly based on the modulation of the Th1/Th2 balance towards a Th1 dominated response, and not predominantly based on a direct antiviral effect. The term “direct antiviral” effect or activity as used herein refers to an immediate effect or activity of a drug on viral assembly or replication. In contrast, a reduction of viral activity or replication that is at least in part mediated by one or more components of the immune system is not considered a “direct antiviral” effect or activity. Likewise, it should be appreciated that a relative reduction of the Th2 response during a treatment may be especially advantageous in diseases that are correlated with an increased Th2 response (e.g., HCV infection).

[2] = tested on: IMP dehydrogenase; details: cited from earlier work
[3] = tested on: ten different viruses; details: compared with Ribavirin; cited from earlier work
[4] = preliminary toxicology studies; cited from earlier work

Row | Structure (SMILES) | clinical pathology after oral administration [1] | inhibition of IMP dehydrogenase [2] | antiviral activity [3] | toxicity relative to Ribavirin [4]
1 | NC(=O)c1ncn([C@H]2O[C@@H](CO)[C@H](O)[C@@H]2O)n1 [Levovirin] | did not produce any observable clinical pathology | – | – | –
2 | NC(=O)c1ncn([C@@H]2O[C@H](CO)[C@@H](O)[C@H]2O)n1 [Ribavirin, 1-β-D-ribofuranosyl-1,2,4-triazole-3-carboxamide] | significant hemolytic anemia and leukopenia | inhibitor of IMP dehydrogenase | – | –
3 | N=C(N)c1ncn([C@@H]2O[C@H](CO)[C@@H](O)[C@H]2O)n1 [Viramidine] | – | inhibitor of IMP dehydrogenase | active in ten different viruses—comparable to Ribavirin | less toxic than Ribavirin

Reference: patent US6815542B2 (priority 2000, dated 2004)
